Results: the NIST ThermoML archive (doi:10.1021/acs.jced.8b00403)

Legend:
[1] = refractive index (Na D-line) (dimensionless); conditions: 101.33 kPa, Liquid, Standard Abbe refractometry
[2] = 101.33 kPa, Liquid; for viscosity: Concentric cylinders viscometry; for mass density: Vibrating tube method
[3] = wn = mass fraction of the nth substance listed; conditions: 101.33 kPa, Liquid, w2 = 0; for viscosity: Concentric cylinders viscometry; for mass density: Vibrating tube method
[4] = refractive index (Na D-line) (dimensionless); wn = mass fraction of the nth substance listed; conditions: 101.33 kPa, Liquid, Standard Abbe refractometry, w2 = 0

CC(O)CO (stereo unspecified) [1,2-propanediol]
Conditions | mass density, [2] [kg/m3] | refractive index, [1] | viscosity, [2] [mPa·s]
253.15 K | 1065.8 | – | 1772.4
258.15 K | 1062.2 | – | 1038.3
263.15 K | 1058.6 | – | 631.08
268.15 K | 1054.9 | – | 396.99
273.15 K | 1051.3 | – | 258
278.15 K | – | 1.438 | –
283.15 K | 1042.9 | 1.4364 | 116.68
288.15 K | – | 1.4348 | –
293.15 K | 1035.5 | 1.4332 | 59.75
298.15 K | – | 1.4315 | –
303.15 K | 1028.1 | 1.4299 | 33.26
308.15 K | – | 1.4281 | –
313.15 K | 1020.6 | 1.4264 | 19.92
318.15 K | – | 1.4247 | –
323.15 K | 1013 | – | 12.68
333.15 K | 1005.3 | – | 8.498
343.15 K | 997.7 | – | 5.95
353.15 K | 989.5 | – | 4.332

OCCCO [propan-1,3-diol]
Conditions | mass density, [2] [kg/m3] | refractive index, [1] | viscosity, [2] [mPa·s]
253.15 K | 1078.2 | – | 574.39
258.15 K | 1075.4 | – | 409.88
263.15 K | 1072.3 | – | 289.5
268.15 K | 1069 | – | 207.88
273.15 K | 1065.9 | – | 152.75
278.15 K | – | 1.4436 | –
283.15 K | 1059.8 | 1.4423 | 86.48
288.15 K | – | 1.4409 | –
293.15 K | 1053.6 | 1.4395 | 52.01
298.15 K | – | 1.4381 | –
303.15 K | 1047.4 | 1.4368 | 32.92
308.15 K | – | 1.4354 | –
313.15 K | 1041.1 | 1.434 | 21.79
318.15 K | – | 1.4325 | –
323.15 K | 1034.8 | – | 15
333.15 K | 1028.4 | – | 10.72
343.15 K | 1021.9 | – | 7.855
353.15 K | 1015.3 | – | 5.916

O [water]
Conditions | mass density, [2] [kg/m3] | refractive index, [1] | viscosity, [2] [mPa·s]
273.15 K | 1000.8 | – | 1.825
278.15 K | – | 1.3341 | –
283.15 K | 1000.6 | 1.3338 | 1.345
288.15 K | – | 1.3335 | –
293.15 K | 999.3 | 1.3331 | 1.041
298.15 K | – | 1.3326 | –
303.15 K | 996.8 | 1.332 | 0.8467
308.15 K | – | 1.3313 | –
313.15 K | 993.2 | 1.3306 | 0.6997
318.15 K | – | 1.3298 | –
323.15 K | 989 | – | 0.5967
333.15 K | 984.4 | – | 0.5091
343.15 K | 978.6 | – | 0.4355
353.15 K | 972.7 | – | 0.3911

O [water] + CC(O)CO
Conditions | mass density, [3] [kg/m3] | refractive index, [4] | viscosity, [3] [mPa·s]
273.15 K | 1000.8 | – | 1.825
278.15 K | – | 1.3341 | –
283.15 K | 1000.6 | 1.3338 | 1.345
288.15 K | – | 1.3335 | –
293.15 K | 999.3 | 1.3331 | 1.041
298.15 K | – | 1.3326 | –
303.15 K | 996.8 | 1.332 | 0.8467
308.15 K | – | 1.3313 | –
313.15 K | 993.2 | 1.3306 | 0.6997
318.15 K | – | 1.3298 | –
323.15 K | 989 | – | 0.5967
333.15 K | 984.4 | – | 0.5091
343.15 K | 978.6 | – | 0.4355
353.15 K | 972.7 | – | 0.3911

O [water] + OCCCO
Conditions | mass density, [3] [kg/m3] | refractive index, [4] | viscosity, [3] [mPa·s]
273.15 K | 1000.8 | – | 1.825
278.15 K | – | 1.3341 | –
283.15 K | 1000.6 | 1.3338 | 1.345
288.15 K | – | 1.3335 | –
293.15 K | 999.3 | 1.3331 | 1.041
298.15 K | – | 1.3326 | –
303.15 K | 996.8 | 1.332 | 0.8467
308.15 K | – | 1.3313 | –
313.15 K | 993.2 | 1.3306 | 0.6997
318.15 K | – | 1.3298 | –
323.15 K | 989 | – | 0.5967
333.15 K | 984.4 | – | 0.5091
343.15 K | 978.6 | – | 0.4355
353.15 K | 972.7 | – | 0.3911
